BindingDB's records for doi:10.1016/j.bioorg.2016.09.007 (Shaoyang University, 2016)

target: T1, Polyphenol oxidase 1 [61-568] (Agaricus bisporus, UniProt Q00024); assay: Tyrosinase Activity Assay; settings: pH 6.8
T1 construct: 61-568
T1 sequence (Q00024 whole entry): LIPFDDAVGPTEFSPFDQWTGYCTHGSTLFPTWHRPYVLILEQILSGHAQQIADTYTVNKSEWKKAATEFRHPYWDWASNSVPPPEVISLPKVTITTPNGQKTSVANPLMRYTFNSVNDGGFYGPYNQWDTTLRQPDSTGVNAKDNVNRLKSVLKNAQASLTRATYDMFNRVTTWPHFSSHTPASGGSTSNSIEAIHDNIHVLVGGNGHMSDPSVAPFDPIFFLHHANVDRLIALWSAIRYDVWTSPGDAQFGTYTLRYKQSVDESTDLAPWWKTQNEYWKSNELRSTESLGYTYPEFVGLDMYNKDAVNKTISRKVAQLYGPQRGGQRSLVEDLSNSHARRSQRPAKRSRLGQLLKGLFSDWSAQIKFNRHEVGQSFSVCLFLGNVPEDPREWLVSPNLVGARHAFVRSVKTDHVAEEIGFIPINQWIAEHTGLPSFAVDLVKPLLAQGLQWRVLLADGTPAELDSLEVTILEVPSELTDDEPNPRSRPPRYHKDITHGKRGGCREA
Description: Briefly, 1,3,4-thiadiazole derivatives were tested for diphenolase inhibitory activity of tyrosinase using L-DOPA (dihydroxyphenylalanine) as substrate. All the compounds were dissolved in DMSO and its final concentration in the reaction mixture was 2.0%. Thirty units of mushroom tyrosinase (0.5 mg/ml) were first pre-incubated with the compounds, in 50 mM phosphate buffer (pH 6.8), for 10 min at 25 °C. Then the L-DOPA (0.5 mM) was added to the reaction mixture and the enzyme reaction was continuously monitored by measuring the change in absorbance at 475 nm of formation of the DOPA chrome for 1 min.

Going from COc1cc(OC)c(C=Nc2nnc(S)s2)c(OC)c1 [2-((2,4,6-Trimethoxybenzylidene)amino)-5-mercapto-1,3,4-thiadiazole (16)] to COc1cc(C=Nc2nnc(S)s2)cc(OC)c1O [4-(((5-Mercapto-1,3,4-thiadiazol-2-yl)imino)methyl)-2,6-dimethoxyphenol (15)], the IC50 falls from 907 nM to 473 nM (1.9-fold).

Fc1ccccc1C=Nc1nnc(S)s1 [2-((2-Fluorobenzylidene)amino)-5-mercapto-1,3,4-thiadiazole (2)] and Oc1ccccc1C=Nc1nnc(S)s1 [2-(((5-Mercapto-1,3,4-thiadiazol-2-yl)imino)methyl)phenol (12)] are within 1.5-fold of each other in IC50: 765 nM for the first, 785 nM for the second.

COc1ccccc1C=Nc1nnc(S)s1 [2-((2-Methoxybenzylidene)amino)-5-mercapto-1,3,4-thiadiazole (10)] and O=[N+]([O-])c1ccccc1C=Nc1nnc(S)s1 [2-((2-Nitrobenzylidene)amino)-5-mercapto-1,3,4-thiadiazole (9)] are within 1.5-fold of each other in IC50: 733 nM for the first, 671 nM for the second.

Sc1nnc(N=Cc2ccc(Cl)c(Cl)c2)s1 [2-((3,4-Dichlorobenzylidene)amino)-5-mercapto-1,3,4-thiadiazole (5)] and Sc1nnc(N=Cc2cccc(Cl)c2)s1 [2-((3-Chlorobenzylidene)amino)-5-mercapto-1,3,4-thiadiazole (3)] are within 1.5-fold of each other in IC50: 3620 nM for the first, 4750 nM for the second.

First: COc1cc(C=Nc2nnc(S)s2)cc(OC)c1 [2-((3,5-Dimethoxybenzylidene)amino)-5-mercapto-1,3,4-thiadiazole (11)]
Second: COc1cc(C=Nc2nnc(S)s2)ccc1O [4-(((5-Mercapto-1,3,4-thiadiazol-2-yl)imino)methyl)-2-methoxyphenol (14)]
The IC50 of the first is 150-fold higher: 5350 nM for the first, 36 nM for the second. The second is the more potent here.

First: CC(C)(C)c1ccc(C=Nc2nnc(S)s2)cc1 [2-((4-(Tert-butyl)benzylidene)amino)-5-mercapto-1,3,4-thiadiazole (8)]
Second: Sc1nnc(N=Cc2ccc(Cl)cc2)s1 [2-((4-Chlorobenzylidene)amino)-5-mercapto-1,3,4-thiadiazole (4)]
The IC50 of the first is 1.8-fold lower: 1390 nM for the first, 2460 nM for the second.

Compared with Oc1ccc(Cl)cc1C=Nc1nnc(SCc2ccccc2)s1 [2-(((5-(Benzylthio)-1,3,4-thiadiazol-2-yl)imino)methyl)-4-chlorophenol (17)], Oc1ccc(Cl)cc1C=Nc1nnc(S)s1 [4-Chloro-2-(((5-mercapto-1,3,4-thiadiazol-2-yl)imino)methyl)phenol (6)] is 140-fold lower in IC50: 247000 nM for the first, 1720 nM for the second.

Going from Sc1nnc(N=Cc2ccccc2)s1 [2-(Benzylideneamino)-5-mercapto-1,3,4-thiadiazole (1)] to Oc1ccc(C=Nc2nnc(S)s2)c(O)c1 [4-(((5-Mercapto-1,3,4-thiadiazol-2-yl)imino)methyl)benzene-1,3-diol (13)], the IC50 falls from 49200 nM to 255 nM (190-fold).

Oc1ccc(Br)cc1C=Nc1nnc(S)s1 [4-Bromo-2-(((5-mercapto-1,3,4-thiadiazol-2-yl)imino)methyl)phenol (7)] showed an IC50 of 1970 nM.
